Patent US20090105119A1, “ASPARAGINE-10-SUBSTITUTED NONADEPSIPEPTIDES” (priority 2006, published 2009)
*1 amine or outer side, *2 acyl side, *3 side chain or, on linkers, in order; H or OH if unused. Where a SMILES comes first, the peptide text is derived from it. Bridges are numbered along the chain shown (N, C = ends). Side-chain parts run from the residue outwards. [ ]: non-standard residue; d: D form. The star is where a group is joined. X4 = O=C(CNC(=O)[C@@H](O)[C@H](N[*:1])C(=O)[*:2])OCc1ccccc1; Phe(3R-OH) = O=C([C@@H](N[*:1])[C@H](O[*:3])c1ccccc1)[*:2]; X8 = O=C(NCCCN1CCOCC1)[C@@H](O)[C@H](N[*:1])C(=O)[*:2]; X6 = NC(=O)CNC(=O)[C@@H](O)[C@H](N[*:1])C(=O)[*:2]; X3 = O=C([C@@H](N[*:1])[C@H](O)C(=O)[*:3])[*:2]; X5 = NCCNC(=O)[C@@H](O)[C@H](N[*:1])C(=O)[*:2]; Asn(3S-OH) = NC(=O)[C@@H](O)[C@H](N)C(=O)O; Leu(3R-OH) = CC(C)[C@@H](O)[C@H](N)C(=O)O; Ethylenediamine = C(CN[*:2])N[*:1]; aThr = C[C@H](O)[C@H](N)C(=O)O; Cbz = O=C(OCc1ccccc1)*

Assays:
[1] = Determination of the free fraction (fu) in plasma; assay type: in vitro ADME; details: human
Method: (§1) Principle of the Determination of the Free Fraction Via Transil:
(§2) The method described here for determining the free fraction (fu) of a test substance is divided into 2 parts:
(§3) a) Determination of the Transil®/buffer distribution ratio (MAbuffer) by incubating the test substance in a Transil®-buffer (pH 7.4) dispersion and subsequently determining the concentration in the dispersion and in the buffer supernatant.
(§4) b) Determination of the Transil®/plasma distribution ratio (MAplasma) by incubating the test substance in a Transil®-plasma dispersion and subsequently determining the concentration in the dispersion and in the plasma.
(§5) The quotient of the two distribution ratios yields fu.
(§6) In the case of highly protein-bound substances, the plasma is usually diluted with isotonic phosphate buffer (pH 7.4) and then suspended with Transil®. The determination of fu′ (free fraction in diluted plasma) in this diluted protein solution takes place in analogy to the determination of fu. The free fraction in undiluted plasma is calculated from fu′ and the dilution factor.
(§7) Concerning this method, compare also: Schuhmacher, Joachim; Kohlsdorfer, Christian; Buehner, Klaus; Brandenburger, Tim; Kruk, Renate, “High-throughput determination of the free fraction of drugs strongly bound to plasma proteins.” Journal of Pharmaceutical Sciences 2004, 93, 816-830.
(§8) Determination of the Membrane Affinity of a Test Substance after Distribution Between Transil® and Buffer (MAbuffer):
(§9) All incubations are carried out in suitable glass vessels, e.g. glass vials, ground-socket test tubes. In general the total volume is 0.5-5 ml, and the Transil® volume 10-100 μl. In cases where the membrane affinities are expected to be high, the Transil® dispersion can be diluted up to 20-fold with phosphate buffer of pH 7.4, e.g. Dulbecco's PBS. Phosphate buffer of pH 7.4 is provided in the incubation vessels, and the Transil® is pipetted in, after thorough mixing. The test substance is pipetted in at a concentration of, for example, 200 ng/mL, n=6. The proportion of organic solvent should be <2%. The mixtures are incubated at room temperature for 30 min, e.g. on a mini-shaker at an angle of about 45°, at about 400 rpm. In order to determine the 100% value at least one aliquot of, for example, 100 μl, is removed and the remaining mixture is centrifuged at about 1800 g for about 10 min. At least 2 aliquots (e.g. 100 μl) of the supernatant are removed from each sample for the determination of the concentration.
(§10) Determination of MAplasma in Undiluted or Diluted Plasma:
(§11) The total incubation volume and the added volume of Transil® depend on the expected free fraction. In general the total volume is 0.5-1 ml, and the Transil® volume is 10-100 μl. In cases where the free fractions are very low, the plasma of the species to be investigated is diluted, with isotonic buffer solution, pH 7.4, e.g. 10-400-fold, and the Transil® is then added. The subsequent procedure takes place as described above for the determination of the MAbuffer values. […]
(§12) The plasma of the species to be investigated is filtered through a semipermeable membrane. The substance concentration in the filtrate is measured and the free fraction fu is calculated therefrom. […] The substance concentration in the ultrafiltrate (Cu; unbound substance concentration) and in the plasma before centrifugation (C; total substance concentration) is measured. The free fraction is calculated by the formula: fu (%)=Cu/C*100.

[2] = Determination of the free fraction (fu) in plasma; assay type: in vitro ADME, rat; details: rat, plasma, pH 7.4
Method: as §1, §2, §3, §4, §5, §6, §7, §8, §9, §10, §11, §12

E. faecalis ICB 27159 = assay type: cell-based, Enterococcus faecalis; details: ICB 27159
Method: (§13) Determination of the Minimum Inhibitory Concentration (MIC):
(§14) The MIC is determined in the liquid dilution test in accordance with the NCCLS guidelines. Overnight cultures of Staphylococcus aureus 133, Enterococcus faecalis 27159, E. faecium 4147 and Streptococcus pneumoniae G9a are incubated with the described test substances in a 1:2 dilution series. The MIC determination is carried out with a cell count of 10^5 microbes per ml in Isosensitest medium (Difco, Irvine/USA), with the exception of S. pneumoniae which is tested in BHI broth (Difco, Irvine/USA) with 10% bovine serum with a cell count of 10^6 microbes per ml. The cultures are incubated at 37° C. for 18-24 hours, S. pneumoniae in the presence of 10% CO2.
(§15) The MIC is defined as the lowest concentration of each substance at which no visible bacterial growth occurs any longer. The MIC values are reported in μg/ml.

[3] = test system: Staphylococcus aureus 133; assay type: cell-based; details: 133
Method: as §13, §14, §15

[4] = test system: Streptococcus pneumoniae G9a; assay type: cell-based; details: G9a
Method: as §13, §14, §15

SMILES | fraction unbound at 30 min [1] | fraction unbound at 30 min, 200 ng/mL [2] | MIC E. faecalis ICB 27159 (E. faecalis ICB 27159) | MIC S. aureus 133 [3] | MIC S. pneumoniae G9a [4]
CC[C@H](C)[C@@H]1NC(=O)[C@@H](CCCNC(=N)N)NC(=O)[C@H](CC(C)C)NC(=O)[C@H]([C@H](O)C(C)C)NC(=O)[C@@H](NC(=O)[C@H](CC(C)C)NC(=O)[C@H](N)CC(C)C)[C@@H](c2ccccc2)OC(=O)[C@H](CO)NC(=O)[C@H]([C@H](O)C(=O)NCCCN2CCOCC2)NC(=O)CNC(=O)[C@H]([C@H](C)O)NC1=O [Example 4, N^4.10-(3-Morpholin-4-yl-propyl)-D-leucyl-L-leucyl-[(3R)-3-hydroxy-L-phenylalanyl]-[(3R)-3-hydroxy-L-leucyl]-L-leucyl-D-arginyl-L-isoleucyl-L-allothreonylglycyl-[(3S)-3-hydroxy-L-asparaginyl]-L-serine C^1.11—O^3.3-lactone Tristrifluoroacetate] (H-[dL]L[Phe(3R-OH)][Leu(3R-OH)]L[dR]I[aThr]G[X8]S; ester 3-C) | 0.024 | 0.068 | – | – | –
CC[C@H](C)[C@@H]1NC(=O)[C@@H](CCCNC(=N)N)NC(=O)[C@H](CC(C)C)NC(=O)[C@H]([C@H](O)C(C)C)NC(=O)[C@@H](NC(=O)[C@H](CC(C)C)NC(=O)[C@H](N)CC(C)C)[C@@H](c2ccccc2)OC(=O)[C@H](CO)NC(=O)[C@H]([C@H](O)C(=O)NCCN)NC(=O)CNC(=O)[C@H]([C@H](C)O)NC1=O.O=C(O)C(F)(F)F.O=C(O)C(F)(F)F.O=C(O)C(F)(F)F [Example 12, N^4.10-(2-Aminoethyl)-D-leucyl-L-leucyl-[(3R)-3-hydroxy-L-phenylalanyl]-[(3R)-3-hydroxy-L-leucyl]-L-leucyl-D-arginyl-L-isoleucyl-L-allothreonylglycyl-[(3S)-3-hydroxy-L-asparaginyl]-L-serine C^1.11—O^3.3-lactone Tristrifluoroacetate] (H-[dL]L[Phe(3R-OH)][Leu(3R-OH)]L[dR]I[aThr]G[X5]S; ester 3-C) | – | – | 8 µg/mL | 0.5 µg/mL | 2 µg/mL
CC[C@H](C)[C@@H]1NC(=O)[C@@H](CCCNC(=N)N)NC(=O)[C@H](CC(C)C)NC(=O)[C@H]([C@H](O)C(C)C)NC(=O)[C@@H](NC(=O)[C@H](CC(C)C)NC(=O)[C@H](N)CC(C)C)[C@@H](c2ccccc2)OC(=O)[C@H](CO)NC(=O)[C@H]([C@H](O)C(=O)NCCNC(=O)OCc2ccccc2)NC(=O)CNC(=O)[C@H]([C@H](C)O)NC1=O.O=C(O)C(F)(F)F.O=C(O)C(F)(F)F [Example 9, N^4.10-(2-{[(Benzyloxy)carbonyl]amino}ethyl)-D-leucyl-L-leucyl-[(3R)-3-hydroxy-L-phenylalanyl]-[(3R)-3-hydroxy-L-leucyl]-L-leucyl-D-arginyl-L-isoleucyl-L-allothreon-ylglycyl-[(3S)-3-hydroxy-L-asparaginyl]-L-serine C^1.11—O^3.3-lactone Bistrifluoroacetate] (H-[dL]L[Phe(3R-OH)][Leu(3R-OH)]L[dR]I[aThr]G[X3]([Ethylenediamine-Cbz])S; ester 3-C) | – | – | 16 µg/mL | 0.5 µg/mL | 2 µg/mL
CC[C@H](C)[C@@H]1NC(=O)[C@@H](CCCNC(=N)N)NC(=O)[C@H](CC(C)C)NC(=O)[C@H]([C@H](O)C(C)C)NC(=O)[C@@H](NC(=O)[C@H](CC(C)C)NC(=O)[C@H](N)CC(C)C)[C@@H](c2ccccc2)OC(=O)[C@H](CO)NC(=O)[C@H]([C@H](O)C(=O)NCC(=O)OCc2ccccc2)NC(=O)CNC(=O)[C@H]([C@H](C)O)NC1=O.O=C(O)C(F)(F)F.O=C(O)C(F)(F)F [Example 8, N^4.10-(2-(Benzyloxy)-2-oxoethyl)-D-leucyl-L-leucyl-[(3R)-3-hydroxy-L-phenylalanyl]-[(3R)-3-hydroxy-L-leucyl]-L-leucyl-D-arginyl-L-isoleucyl-L-allothreonylglycyl-[(3S)-3-hydroxy-L-β-asparaginyl]-L-serine C^1.11—O^3.3-lactone Bistrifluoroacetate] (H-[dL]L[Phe(3R-OH)][Leu(3R-OH)]L[dR]I[aThr]G[X4]S; ester 3-C) | – | – | 16 µg/mL | 0.5 µg/mL | 2 µg/mL
CC[C@H](C)[C@@H]1NC(=O)[C@@H](CCCNC(=N)N)NC(=O)[C@H](CC(C)C)NC(=O)[C@H]([C@H](O)C(C)C)NC(=O)[C@@H](NC(=O)[C@H](CC(C)C)NC(=O)[C@H](N)CC(C)C)[C@@H](c2ccccc2)OC(=O)[C@H](CO)NC(=O)[C@H]([C@H](O)C(=O)NCC(N)=O)NC(=O)CNC(=O)[C@H]([C@H](C)O)NC1=O.O=C(O)C(F)(F)F.O=C(O)C(F)(F)F [Example 10, N^4.10-(2-Amino-2-oxoethyl)-D-leucyl-L-leucyl-[(3R)-3-hydroxy-L-phenylalanyl]-[(3R)-3-hydroxy-L-leucyl]-L-leucyl-D-arginyl-L-isoleucyl-L-allothreonylglycyl-[(3S)-3-hydroxy-L-asparaginyl]-L-serine C^1.11—O^3.3-lactone Bistrifluoroacetate] (H-[dL]L[Phe(3R-OH)][Leu(3R-OH)]L[dR]I[aThr]G[X6]S; ester 3-C) | – | – | 2 µg/mL | 0.25 µg/mL | 1 µg/mL
CC[C@H](C)[C@@H]1NC(=O)[C@@H](CCCNC(=N)N)NC(=O)[C@H](CC(C)C)NC(=O)[C@H]([C@H](O)C(C)C)NC(=O)[C@@H](NC(=O)[C@H](CC(C)C)NC(=O)[C@H](N)CC(C)C)[C@@H](c2ccccc2)OC(=O)[C@H](CO)NC(=O)[C@H]([C@H](O)C(N)=O)NC(=O)CNC(=O)[C@H]([C@H](C)O)NC1=O [1a (Lysobactin), D-Leucyl-N^1-{(3S,6S,12S,15S,18R,21S,24S,27S,28R)-6-[(1S)-2-amino-1-hydroxy-2-oxo-ethyl]-18-(3-{[amino(imino)methyl]amino}propyl)-12-[(1S)-1-hydroxyethyl]-3-(hydroxy-methyl)-24-[(1R)-1-hydroxy-2-methylpropyl]-21-isobutyl-15-[(1S)-1-methylpropyl]-2,5,8,11,14,17,20,23,26-nonaoxo-28-phenyl-1-oxa-4,7,10,13,16,19,22,25-octaazacyclo-octacosan-27-yl}-L-leucinamide Bistrifluoroacetate, reference compound] (H-[dL]L[Phe(3R-OH)][Leu(3R-OH)]L[dR]I[aThr]G[Asn(3S-OH)]S; ester 3-C) | 0.0081 | 0.0076 | – | – | –
